Values joined by “and” are separate entries in the source; they are usually repeats but may differ in a detail not shown here. Identical values can stand only once. Toxic doses and inconclusive results are not listed.

Data on 19 compounds can be found in PubChem BioAssay AID248 (DTP/NCI, 2004).

This assay relates to L1210 leukemia ip in BDF1 mice, survival T/C. The assay can be described thus: NCI In Vivo Anticancer Drug Screen. Data for tumor model L1210 Leukemia (intraperitoneal) in B6D2F1 (BDF1) mice. The following applies: endpoint: mean survival time, higher = longer survival. The method in brief: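 Tumor was transplanted into mice, which were then dosed with test compound or vehicle alone. Survival was recorded for each group, and the treated figure was expressed relative to the control figure.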

Where [1] appears, read: dose: 100.0 mg/kg/injection, schedule: Q04DX002 (ip), vehicle: Klucel (hydroxypropylcellulose) (HPC).
Setting [2] is: dose: 200.0 mg/kg/injection, schedule: Q04DX002 (ip), vehicle: Klucel (hydroxypropylcellulose) (HPC).
The mark [3] stands for this setting: dose: 400.0 mg/kg/injection, schedule: Q04DX002 (ip), vehicle: Klucel (hydroxypropylcellulose) (HPC).
Setting [4] is: dose: 100.0 mg/kg/injection, schedule: Q04DX003 (ip), vehicle: saline with Tween-80.
The mark [5] stands for this setting: dose: 200.0 mg/kg/injection, schedule: Q04DX003 (ip), vehicle: saline with Tween-80.
Where [6] appears, read: dose: 400.0 mg/kg/injection, schedule: Q04DX003 (ip), vehicle: saline with Tween-80.
[7] abbreviates: dose: 100.0 mg/kg/injection, schedule: Q01DX001 (ip), vehicle: carboxymethylcellulose (CMC).
Setting [8] is: dose: 200.0 mg/kg/injection, schedule: Q01DX001 (ip), vehicle: carboxymethylcellulose (CMC).
[9] abbreviates: dose: 400.0 mg/kg/injection, schedule: Q01DX001 (ip), vehicle: carboxymethylcellulose (CMC).

In the case of `CCC[CH2][Sn]([C]#[C][Sn]([CH2]CCC)([CH2]CCC)[CH2]CCC)([CH2]CCC)[CH2]CCC`, the T/C runs as follows: (dose: 0.39 mg/kg/injection, schedule: Q01DX009 (ip), vehicle: saline) 94 % of control; (dose: 0.78 mg/kg/injection, schedule: Q01DX009 (ip), vehicle: saline) 94 % of control; (dose: 1.56 mg/kg/injection, schedule: Q01DX009 (ip), vehicle: saline) 97 % of control and 102 % of control; (dose: 6.25 mg/kg/injection, schedule: Q01DX009 (ip), vehicle: Klucel (hydroxypropylcellulose) (HPC)) 88 % of control; (dose: 25.0 mg/kg/injection, schedule: Q04DX002 (ip), vehicle: saline) 94 % of control.
`O=C1c2ccccc2C(c2ccccc2)C1c1ccccc1` (configuration not stated): the T/C runs as follows: (dose: 50.0 mg/kg/injection, schedule: Q04DX002 (ip), vehicle: Klucel (hydroxypropylcellulose) (HPC)) 108 % of control; under setting [1], 94 % of control; under setting [2], 94 % of control.
Consider `Clc1ccc(NC(Nc2ccc(Cl)cc2)C(Cl)(Cl)Cl)cc1`, for which the T/C was 93 % of control (dose: 50.0 mg/kg/injection, schedule: Q01DX001 (ip), vehicle: Klucel (hydroxypropylcellulose) (HPC)); 93 % of control (dose: 100.0 mg/kg/injection, schedule: Q01DX001 (ip), vehicle: Klucel (hydroxypropylcellulose) (HPC)); 90 % of control (dose: 200.0 mg/kg/injection, schedule: Q01DX001 (ip), vehicle: Klucel (hydroxypropylcellulose) (HPC)).
Turning to `CC(C)(C)[CH2][Sn]([CH2]C(C)(C)C)([CH2]C(C)(C)C)[c]1ccc(-c2ccccc2)cc1`, the T/C runs as follows: under setting [1], 111 % of control; under setting [2], 92 % of control; under setting [3], 92 % of control.
In the case of `O=c1c2ccccc2c2c3c1cccc3c1cccc3c(=O)c4ccccc4c2c31`, the T/C under setting [4] is 98 % of control, the T/C under setting [5] is 101 % of control and the T/C under setting [6] was 104 % of control.
Consider `C[S+](C)CC(=O)c1ccccc1`, for which the T/C is, setting by setting: (dose: 100.0 mg/kg/injection, schedule: Q04DX003 (ip), vehicle: saline) 95 % of control; (dose: 200.0 mg/kg/injection, schedule: Q04DX003 (ip), vehicle: saline) 104 % of control.
As for `N#CCCNc1cccc(Cl)c1`, the T/C (dose: 100.0 mg/kg/injection, schedule: Q04DX003 (ip), vehicle: Klucel (hydroxypropylcellulose) (HPC)) is 94 % of control; the T/C (dose: 200.0 mg/kg/injection, schedule: Q04DX003 (ip), vehicle: Klucel (hydroxypropylcellulose) (HPC)) is 109 % of control; the T/C (dose: 400.0 mg/kg/injection, schedule: Q04DX003 (ip), vehicle: Klucel (hydroxypropylcellulose) (HPC)) is 96 % of control.
Turning to `CC(C)N(C(=O)Nc1cccc(C(F)(F)F)c1)c1ccccc1`, the T/C is, setting by setting: (dose: 100.0 mg/kg/injection, schedule: Q01DX009 (ip), vehicle: Klucel (hydroxypropylcellulose) (HPC)) 106 % of control; (dose: 200.0 mg/kg/injection, schedule: Q01DX009 (ip), vehicle: Klucel (hydroxypropylcellulose) (HPC)) 104 % of control; (dose: 400.0 mg/kg/injection, schedule: Q01DX009 (ip), vehicle: Klucel (hydroxypropylcellulose) (HPC)) 87 % of control.
`CCOC(=O)N1CCCCC1`: the T/C reads like this: (dose: 50.0 mg/kg/injection, schedule: Q01DX001 (ip), vehicle: carboxymethylcellulose (CMC)) 95 % of control; under setting [7], 95 % of control; under setting [8], 101 % of control and 93 % of control; under setting [9], 104 % of control and 90 % of control.
With `CCCCCCCCCCCCCCCCOc1ccc(F)cc1`, the T/C reads like this: under setting [1], 103 % of control; under setting [2], 118 % of control; under setting [3], 107 % of control.
Consider `CC(Br)C(=O)NC(Cc1ccccc1)C(=O)O` (configuration not stated), for which the T/C (dose: 100.0 mg/kg/injection, schedule: Q01DX009 (ip), vehicle: alcohol) is 93 % of control; the T/C (dose: 100.0 mg/kg/injection, schedule: Q04DX003 (ip), vehicle: other) is 104 % of control; the T/C under setting [4] was 94 % of control; the T/C (dose: 200.0 mg/kg/injection, schedule: Q01DX009 (ip), vehicle: alcohol) was 100 % of control; the T/C (dose: 200.0 mg/kg/injection, schedule: Q04DX003 (ip), vehicle: other) is 104 % of control and 88 % of control; the T/C under setting [5] was 96 % of control. Moreover, the T/C (dose: 400.0 mg/kg/injection, schedule: Q01DX009 (ip), vehicle: alcohol) is 90 % of control; the T/C (dose: 400.0 mg/kg/injection, schedule: Q04DX003 (ip), vehicle: other) was 92 % of control and 88 % of control; the T/C under setting [6] is 91 % of control.
As to `CCOC(=O)C1(NC(=O)N(CCCl)N=O)CCCC1`, the T/C by setting is: (dose: 16.0 mg/kg/injection, schedule: Q01DX001 (ip), vehicle: other) 105 % of control; (dose: 31.0 mg/kg/injection, schedule: Q01DX001 (ip), vehicle: other) 110 % of control; (dose: 108.0 mg/kg/injection, schedule: Q01DX001 (ip), vehicle: other) 178 % of control; (dose: 110.0 mg/kg/injection, schedule: Q01DX001 (ip), vehicle: other) 185 % of control; (dose: 125.0 mg/kg/injection, schedule: Q01DX001 (ip), vehicle: other) 217 % of control; (dose: 165.0 mg/kg/injection, schedule: Q01DX001 (ip), vehicle: other) 236 % of control. The T/C was 262 % of control (dose: 168.0 mg/kg/injection, schedule: Q01DX001 (ip), vehicle: other); 272 % of control (dose: 247.0 mg/kg/injection, schedule: Q01DX001 (ip), vehicle: other); 278 % of control and 314 % of control (dose: 250.0 mg/kg/injection, schedule: Q01DX001 (ip), vehicle: other); 250 % of control (dose: 370.0 mg/kg/injection, schedule: Q01DX001 (ip), vehicle: other); 115 % of control (dose: 375.0 mg/kg/injection, schedule: Q01DX001 (ip), vehicle: other); 94 % of control (dose: 555.0 mg/kg/injection, schedule: Q01DX001 (ip), vehicle: other).
Regarding `O=c1ssc(Cl)c1Cl`, the T/C is 94 % of control (dose: 9.5 mg/kg/injection, schedule: Q01DX001 (ip), vehicle: other); 97 % of control (dose: 10.0 mg/kg/injection, schedule: Q04DX003 (ip), vehicle: other); 103 % of control (dose: 19.0 mg/kg/injection, schedule: Q01DX001 (ip), vehicle: other); 107 % of control (dose: 20.0 mg/kg/injection, schedule: Q04DX003 (ip), vehicle: other); 87 % of control (dose: 38.0 mg/kg/injection, schedule: Q01DX001 (ip), vehicle: other); 88 % of control (dose: 40.0 mg/kg/injection, schedule: Q04DX003 (ip), vehicle: other).
In the case of `COc1ccc(OC)c(-n2cccc2C(=O)O)c1`, the T/C is 90 % of control under setting [1], 97 % of control under setting [2] and 93 % of control under setting [3].
Consider `COc1ccc(Oc2cccc3cnccc23)cc1`, for which the T/C under setting [1] is 102 % of control, the T/C under setting [2] was 91 % of control and the T/C under setting [3] is 94 % of control.
`CCOC(=O)CC(C)C(Br)(C(=O)OCC)C(=O)OCC` (configuration not stated): the T/C runs as follows: (dose: 25.0 mg/kg/injection, schedule: Q01DX009 (ip), vehicle: water) 109 % of control; (dose: 50.0 mg/kg/injection, schedule: Q01DX009 (ip), vehicle: water) 111 % of control; (dose: 100.0 mg/kg/injection, schedule: Q01DX009 (ip), vehicle: water) 100 % of control; (dose: 200.0 mg/kg/injection, schedule: Q01DX009 (ip), vehicle: water) 96 % of control.
On to `O=S(=O)(O)CCl`, for which the T/C is, setting by setting: (dose: 100.0 mg/kg/injection, schedule: Q04DX002 (ip), vehicle: saline) 106 % of control; (dose: 200.0 mg/kg/injection, schedule: Q04DX002 (ip), vehicle: saline) 120 % of control; (dose: 400.0 mg/kg/injection, schedule: Q04DX002 (ip), vehicle: saline) 102 % of control.
As to `O=C(N1CCN=C1C(Cl)(Cl)Cl)C(Cl)(Cl)Cl`, the T/C is, setting by setting: under setting [4], 100 % of control; under setting [5], 102 % of control; under setting [6], 102 % of control.
As for `Clc1ccc([I+]c2ccc(Cl)c(Cl)c2)cc1Cl`, the T/C was 98 % of control (dose: 4.0 mg/kg/injection, schedule: Q01DX015 (ip), vehicle: carboxymethylcellulose (CMC)); 96 % of control (dose: 8.0 mg/kg/injection, schedule: Q01DX015 (ip), vehicle: carboxymethylcellulose (CMC)); 87 % of control (dose: 16.0 mg/kg/injection, schedule: Q01DX015 (ip), vehicle: carboxymethylcellulose (CMC)); 96 % of control (dose: 32.0 mg/kg/injection, schedule: Q01DX015 (ip), vehicle: carboxymethylcellulose (CMC)); 95 % of control under setting [7]; 106 % of control under setting [8]. For the same compound, the T/C under setting [9] is 111 % of control.
